Source: the kinase profiling compilation of Christmann-Franck et al. (2016)

Tests used:
Assay in all cases: split-luciferase competition binding
AKT1 (human) = AKT1 (human) (UniProt P31749); settings: compound 10.0 µM
AKT3 (human) = AKT3 (human) (UniProt Q9Y243); settings: compound 10.0 µM
AURKA (human) = AURKA (human) (UniProt O14965); settings: compound 10.0 µM
AURKB (human) = AURKB (human) (UniProt Q96GD4); settings: compound 10.0 µM
AURKC (human) = AURKC (human) (UniProt Q9UQB9); settings: compound 10.0 µM
AURKC (human), sequence (Q9UQB9 whole entry, looked up): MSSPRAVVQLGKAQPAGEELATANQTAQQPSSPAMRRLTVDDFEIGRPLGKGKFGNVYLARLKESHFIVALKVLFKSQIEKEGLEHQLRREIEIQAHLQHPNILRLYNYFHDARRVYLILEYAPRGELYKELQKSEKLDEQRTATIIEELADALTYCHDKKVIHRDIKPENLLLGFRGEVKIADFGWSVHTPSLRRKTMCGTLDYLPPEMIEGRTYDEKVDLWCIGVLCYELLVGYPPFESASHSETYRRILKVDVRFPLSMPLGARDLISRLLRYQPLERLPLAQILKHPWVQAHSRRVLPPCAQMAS

DMPK (human) = DMPK (human) (UniProt Q09013); settings: compound 10.0 µM
PDPK1 (human) = PDPK1 (human) (UniProt O15530); settings: compound 10.0 µM
PKN1 (human) = PKN1 (human) (UniProt Q16512); settings: compound 10.0 µM
PRKACA (mouse) = settings: compound 10.0 µM; accession and sequence are those of the human protein
PRKACB (human) = PRKACB (human) (UniProt P22694); settings: compound 10.0 µM
PRKCD (human) = PRKCD (human) (UniProt Q05655); settings: compound 10.0 µM
PRKCE (human) = PRKCE (human) (UniProt Q02156); settings: compound 10.0 µM
PRKCE (human), sequence (Q02156 whole entry, looked up): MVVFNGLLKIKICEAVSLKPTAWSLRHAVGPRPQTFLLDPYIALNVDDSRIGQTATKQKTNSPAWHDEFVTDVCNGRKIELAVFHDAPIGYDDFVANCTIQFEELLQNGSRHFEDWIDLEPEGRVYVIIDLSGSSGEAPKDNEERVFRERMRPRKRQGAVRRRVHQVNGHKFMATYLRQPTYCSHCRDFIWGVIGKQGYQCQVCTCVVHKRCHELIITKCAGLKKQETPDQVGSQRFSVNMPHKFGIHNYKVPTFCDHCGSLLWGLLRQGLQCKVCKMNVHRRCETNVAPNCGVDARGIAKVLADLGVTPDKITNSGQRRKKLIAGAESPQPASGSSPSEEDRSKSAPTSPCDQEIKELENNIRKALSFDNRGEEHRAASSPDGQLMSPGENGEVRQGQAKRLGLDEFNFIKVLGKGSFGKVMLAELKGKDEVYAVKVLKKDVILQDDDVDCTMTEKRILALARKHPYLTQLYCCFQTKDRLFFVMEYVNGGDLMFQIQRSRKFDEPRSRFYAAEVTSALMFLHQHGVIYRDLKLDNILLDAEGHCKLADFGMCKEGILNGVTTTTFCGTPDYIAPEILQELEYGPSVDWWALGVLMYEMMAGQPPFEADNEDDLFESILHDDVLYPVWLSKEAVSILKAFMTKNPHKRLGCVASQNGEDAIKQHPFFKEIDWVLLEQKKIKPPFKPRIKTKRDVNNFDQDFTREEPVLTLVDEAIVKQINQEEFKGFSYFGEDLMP

PRKCG (human) = PRKCG (human) (UniProt P05129); settings: compound 10.0 µM
PRKCH (human) = PRKCH (human) (UniProt P24723); settings: compound 10.0 µM
PRKCI (human) = PRKCI (human) (UniProt P41743); settings: compound 10.0 µM
PRKCQ (human) = PRKCQ (human) (UniProt Q04759); settings: compound 10.0 µM
PRKX (human) = PRKX (human) (UniProt P51817); settings: compound 10.0 µM
PRKX (human), sequence (P51817 whole entry, looked up): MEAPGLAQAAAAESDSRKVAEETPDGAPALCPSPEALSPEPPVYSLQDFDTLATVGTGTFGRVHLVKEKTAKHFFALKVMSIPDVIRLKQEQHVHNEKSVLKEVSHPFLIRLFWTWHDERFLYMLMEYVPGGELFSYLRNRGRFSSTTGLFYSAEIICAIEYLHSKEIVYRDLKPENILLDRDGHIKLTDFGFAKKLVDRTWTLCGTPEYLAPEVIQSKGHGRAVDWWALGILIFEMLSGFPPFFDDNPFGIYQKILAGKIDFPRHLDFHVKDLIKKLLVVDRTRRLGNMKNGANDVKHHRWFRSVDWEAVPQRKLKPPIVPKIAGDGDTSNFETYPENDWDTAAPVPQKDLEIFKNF

RPS6KA1 KD1 (human) = RPS6KA1 KD1 (human) (UniProt Q15418); settings: compound 10.0 µM
RPS6KA2 KD1 (human) = RPS6KA2 KD1 (human) (UniProt Q15349); settings: compound 10.0 µM
RPS6KA3 KD1 (human) = RPS6KA3 KD1 (human) (UniProt P51812); settings: compound 10.0 µM
RPS6KA4 KD1 (human) = RPS6KA4 KD1 (human) (UniProt O75676); settings: compound 10.0 µM
RPS6KA4 KD1 (human), sequence (O75676 whole entry, looked up): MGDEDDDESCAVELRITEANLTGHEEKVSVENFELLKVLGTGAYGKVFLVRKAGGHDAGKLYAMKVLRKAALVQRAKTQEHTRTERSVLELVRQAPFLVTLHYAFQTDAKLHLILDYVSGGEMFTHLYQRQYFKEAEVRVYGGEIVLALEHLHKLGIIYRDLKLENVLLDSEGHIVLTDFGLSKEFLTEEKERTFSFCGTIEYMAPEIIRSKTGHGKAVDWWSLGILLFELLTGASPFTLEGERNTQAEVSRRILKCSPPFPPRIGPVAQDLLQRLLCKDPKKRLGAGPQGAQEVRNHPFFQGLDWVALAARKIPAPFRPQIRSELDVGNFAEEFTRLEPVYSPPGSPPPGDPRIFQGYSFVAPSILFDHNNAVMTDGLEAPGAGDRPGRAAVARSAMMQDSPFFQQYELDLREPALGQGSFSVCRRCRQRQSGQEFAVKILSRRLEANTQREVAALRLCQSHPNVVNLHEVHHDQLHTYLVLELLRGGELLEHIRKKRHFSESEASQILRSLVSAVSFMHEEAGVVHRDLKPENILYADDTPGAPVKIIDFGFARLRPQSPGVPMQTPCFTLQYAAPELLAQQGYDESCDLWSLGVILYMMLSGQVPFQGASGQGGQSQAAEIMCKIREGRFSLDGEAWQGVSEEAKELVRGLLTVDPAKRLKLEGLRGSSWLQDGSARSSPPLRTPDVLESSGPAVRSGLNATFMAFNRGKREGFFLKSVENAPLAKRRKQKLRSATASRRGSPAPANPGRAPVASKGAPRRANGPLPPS

RPS6KA6 KD1 (human) = RPS6KA6 KD1 (human) (UniProt Q9UK32); settings: compound 10.0 µM
RPS6KA6 KD1 (human), sequence (Q9UK32 whole entry, looked up): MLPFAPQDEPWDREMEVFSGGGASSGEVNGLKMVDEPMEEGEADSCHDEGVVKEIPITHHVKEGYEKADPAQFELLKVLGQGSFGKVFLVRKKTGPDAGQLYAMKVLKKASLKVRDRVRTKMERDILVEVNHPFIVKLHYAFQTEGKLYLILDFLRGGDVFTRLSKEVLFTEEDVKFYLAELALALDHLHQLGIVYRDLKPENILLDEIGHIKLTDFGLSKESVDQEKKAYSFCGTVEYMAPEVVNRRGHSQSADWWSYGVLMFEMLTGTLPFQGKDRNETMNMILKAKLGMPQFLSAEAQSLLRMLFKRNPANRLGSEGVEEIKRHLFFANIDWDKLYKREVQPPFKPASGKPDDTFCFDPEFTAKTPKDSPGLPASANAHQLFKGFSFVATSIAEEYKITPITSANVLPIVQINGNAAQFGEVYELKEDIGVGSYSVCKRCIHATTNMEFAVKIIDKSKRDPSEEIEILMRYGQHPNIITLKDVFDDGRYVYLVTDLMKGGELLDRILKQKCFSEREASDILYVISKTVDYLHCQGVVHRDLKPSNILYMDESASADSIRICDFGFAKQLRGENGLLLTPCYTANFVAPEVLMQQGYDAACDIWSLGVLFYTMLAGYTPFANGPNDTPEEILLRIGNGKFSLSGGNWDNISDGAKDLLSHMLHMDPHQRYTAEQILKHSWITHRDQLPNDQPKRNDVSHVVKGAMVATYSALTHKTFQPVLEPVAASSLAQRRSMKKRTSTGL

SGK2 (human) = SGK2 (human) (UniProt Q9HBY8); settings: compound 10.0 µM
SGK3 (human) = SGK3 (human) (UniProt Q96BR1); settings: compound 10.0 µM
SGK3 (human), sequence (Q96BR1 whole entry, looked up): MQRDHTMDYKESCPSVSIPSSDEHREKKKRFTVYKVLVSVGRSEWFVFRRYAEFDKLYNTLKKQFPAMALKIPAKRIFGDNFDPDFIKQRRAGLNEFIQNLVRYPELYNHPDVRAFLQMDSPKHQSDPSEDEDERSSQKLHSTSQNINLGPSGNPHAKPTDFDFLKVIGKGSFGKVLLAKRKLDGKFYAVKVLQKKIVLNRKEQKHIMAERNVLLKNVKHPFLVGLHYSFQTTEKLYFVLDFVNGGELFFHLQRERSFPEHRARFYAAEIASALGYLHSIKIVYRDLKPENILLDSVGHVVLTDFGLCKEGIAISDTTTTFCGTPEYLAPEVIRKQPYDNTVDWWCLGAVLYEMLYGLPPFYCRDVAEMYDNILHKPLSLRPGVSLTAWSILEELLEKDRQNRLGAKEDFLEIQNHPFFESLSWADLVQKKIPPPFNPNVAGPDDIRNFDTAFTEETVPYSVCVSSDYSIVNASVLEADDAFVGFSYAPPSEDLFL

STK32B (human) = STK32B (human) (UniProt Q9NY57); settings: compound 10.0 µM
STK32B (human), sequence (Q9NY57 whole entry, looked up): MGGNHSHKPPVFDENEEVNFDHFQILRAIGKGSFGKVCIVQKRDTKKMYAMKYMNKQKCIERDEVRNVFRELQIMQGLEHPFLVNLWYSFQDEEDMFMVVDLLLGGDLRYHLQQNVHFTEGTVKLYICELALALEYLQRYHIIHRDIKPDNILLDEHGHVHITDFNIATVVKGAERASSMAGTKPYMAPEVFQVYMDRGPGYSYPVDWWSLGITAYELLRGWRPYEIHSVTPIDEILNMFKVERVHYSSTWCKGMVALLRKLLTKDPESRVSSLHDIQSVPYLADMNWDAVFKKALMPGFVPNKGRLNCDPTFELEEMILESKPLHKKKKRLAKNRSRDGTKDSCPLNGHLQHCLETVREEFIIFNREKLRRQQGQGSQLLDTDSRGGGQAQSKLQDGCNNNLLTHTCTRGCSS

AKT2 (human) = AKT2 (human) (UniProt P31751); settings: compound 10.0 µM
RPS6KA5 KD1 (human) = RPS6KA5 KD1 (human) (UniProt O75582); settings: compound 10.0 µM

AKT1 (human), sequence (P31749 whole entry, looked up): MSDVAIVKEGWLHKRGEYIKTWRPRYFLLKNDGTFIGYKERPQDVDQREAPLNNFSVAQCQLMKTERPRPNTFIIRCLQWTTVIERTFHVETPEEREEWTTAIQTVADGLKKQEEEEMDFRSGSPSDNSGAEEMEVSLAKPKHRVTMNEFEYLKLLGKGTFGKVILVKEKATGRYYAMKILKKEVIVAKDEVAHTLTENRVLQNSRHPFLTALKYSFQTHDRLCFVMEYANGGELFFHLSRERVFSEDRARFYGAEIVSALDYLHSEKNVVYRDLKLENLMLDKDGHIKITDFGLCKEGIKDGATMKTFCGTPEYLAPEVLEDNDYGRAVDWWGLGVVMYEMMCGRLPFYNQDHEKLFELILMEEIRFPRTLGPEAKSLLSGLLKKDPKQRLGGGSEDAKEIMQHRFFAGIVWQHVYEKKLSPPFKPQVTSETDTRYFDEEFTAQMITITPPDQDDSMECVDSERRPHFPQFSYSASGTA

Row | SMILES | inhibition (AKT1 (human)) [%] | inhibition (AKT3 (human)) [%] | inhibition (AURKA (human)) [%] | inhibition (AURKB (human)) [%] | inhibition (AURKC (human)) [%] | inhibition (PDPK1 (human)) [%] | inhibition (PKN1 (human)) [%] | inhibition (PRKCD (human)) [%] | inhibition (PRKCE (human)) [%] | inhibition (PRKCH (human)) [%] | inhibition (PRKCI (human)) [%] | inhibition (PRKCQ (human)) [%] | inhibition (PRKX (human)) [%] | inhibition (RPS6KA1 KD1 (human)) [%] | inhibition (RPS6KA2 KD1 (human)) [%] | inhibition (RPS6KA4 KD1 (human)) [%] | inhibition (RPS6KA6 KD1 (human)) [%] | inhibition (SGK2 (human)) [%] | inhibition (SGK3 (human)) [%] | inhibition (STK32B (human)) [%] | other results
1 | CCN(CC)CCNC(=O)c1c(C)[nH]c(/C=C2\C(=O)Nc3ccc(F)cc32)c1C | 28 | 26 | 0 | 22 | 30 | 10 | 0 | 0 | 22 | 39 | 22 | 7 | 25 | 86 | 69 | 86 | 69 | 44 | 42 | 0 | inhibition (DMPK (human)): 0%; inhibition (PRKACA (mouse)): 2%; inhibition (PRKACB (human)): 0%; inhibition (PRKCG (human)): 0%; inhibition (RPS6KA3 KD1 (human)): 59%
2 | Cn1cc(C2=C(c3cn(CCCSC(=N)N)c4ccccc34)C(=O)NC2=O)c2ccccc21 | 62 | 78 | 2 | 13 | 10 | 2 | 36 | 91 | 71 | 81 | 63 | 93 | 32 | 71 | 89 | 56 | 80 | 34 | 65 | 63 | inhibition (AKT2 (human)): 28%; inhibition (DMPK (human)): 76%; inhibition (PRKACA (mouse)): 62%; inhibition (PRKACB (human)): 73%; inhibition (RPS6KA3 KD1 (human)): 87%; inhibition (RPS6KA5 KD1 (human)): 64%
3 | Cc1ccc(-c2nn(C(C)(C)C)c3ncnc(N)c23)cc1 | 2 | 0 | 0 | 0 | 0 | 0 | 0 | 0 | 8 | 8 | 0 | 0 | 0 | 27 | 1 | 1 | 14 | 0 | 0 | 58 | inhibition (AKT2 (human)): 0%; inhibition (DMPK (human)): 28%; inhibition (PRKACB (human)): 0%; inhibition (PRKCG (human)): 0%; inhibition (RPS6KA3 KD1 (human)): 8%; inhibition (RPS6KA5 KD1 (human)): 0%
4 | COc1cc2c(Nc3ccc(NC(=O)c4ccccc4)cc3)ncnc2cc1OCCCN1CCOCC1 | 9 | 0 | 13 | 55 | 66 | 0 | 2 | 0 | 0 | 0 | 0 | 0 | 7 | 5 | 2 | 0 | 3 | 0 | 0 | 1 | inhibition (AKT2 (human)): 0%; inhibition (DMPK (human)): 9%; inhibition (PRKACA (mouse)): 7%; inhibition (PRKACB (human)): 0%; inhibition (PRKCG (human)): 6%; inhibition (RPS6KA5 KD1 (human)): 0%
5 | O=C1NC(=O)c2cc(Nc3ccc(F)cc3)c(Nc3ccc(F)cc3)cc21 | 15 | 0 | 0 | 3 | 0 | 10 | 0 | 0 | 0 | 1 | 0 | 12 | 8 | 0 | 3 | 0 | 0 | 0 | 12 | 19 | inhibition (AKT2 (human)): 0%; inhibition (PRKACA (mouse)): 13%; inhibition (PRKACB (human)): 8%; inhibition (RPS6KA3 KD1 (human)): 0%; inhibition (RPS6KA5 KD1 (human)): 0%
6 | O=S(=O)(c1cccc2cnccc12)N1CCCNCC1 | 0 | 0 | 0 | 0 | 6 | 0 | 0 | 1 | 0 | 17 | 38 | 1 | 77 | 2 | 0 | 0 | 0 | 1 | 0 | 0 | inhibition (AKT2 (human)): 0%; inhibition (DMPK (human)): 0%; inhibition (PRKCG (human)): 0%; inhibition (RPS6KA5 KD1 (human)): 0%
